Assay results reported in patent US4150231A, “1-Nitro-9-dialkylaminoisoalkylaminoacridines or their salts” (priority 1976, dated 1979).
“Also recorded” adds a separate entry of the source.

Experiments:
respiratory system = test: Influence on the respiratory system; format: in vivo
Excerpt: The influence exerted by the preparation on the respiratory system is of two-phases.

reproductory functions = test: Influence on reproductory functions; format: in vivo
liver = test system: liver; parameters: species or system rabbits and rats; settings: in vivo
Method: (§1) The extended toxicity studies were carried out for a three-month period in rabbits and rats. Doses of from 1/100 to 1/40 LD50 were administered in the case of rabbits, and of from 1/150 to 1/50 LD50 in the case of rats. It should be noted that the highest doses were also the maximum tolerance doses during 12 weeks.
By prolonged exposition, the influence of the preparation C-829 on the functions of the parenchymateous organs (liver, kidneys) was investigated. […] Only the thymol turbidity test resulted as a positive one, using the highest dosage of the preparation. But it should be kept in mind, that this test is not too exact.

rats [1] = test: Extended three-month toxicity study in rats; format: in vivo; settings: doses 1/150 to 1/50 LD50
Method: as §1

[2] = Acute toxicity i.v. in rats (LD50, MTD); format: in vivo; settings: rat, in vivo, iv, on average
rats [3] = test: Acute toxicity i.v. in rats (LD50, MTD); format: in vivo
[4] = Local irritation by aqueous solution; format: in vivo
Crocker Sarcoma (Sa-180) = test: Inhibition of growth of Crocker Sarcoma (Sa-180) in mice; format: in vivo; settings: 33 determinations in ten series, different doses
Method: The inhibition of growth of Crocker Sarcoma (Sa-180) in mice.
For these experiments mice, three months old and about 25 g in weight were used. Each of them was inoculated with a section of sarcoma (Sa-180 and then they were divided in groups: one of control -- 10 mice, and two to four groups of the "being under treatment"-mice (7 mice each).
The compound investigated in corresponding doses were administered intraperitoneally in appropriate doses, prior to which a maximum tolerance dose was determined.
As a criterion for evaluation of the anti-neoplastic activity of the compounds investigated, the percent difference of the mean weights of tumours isolated from control mice, and the "treated" mice was used, taking into consideration the toxic effects. As active compounds were those which have inhibited, by at least 40%, the growth of the tumours, in at least two tests without any dying of the animals (less than 2 mice), or any mean losses of the weight greater than 4 g.
The investigations in vivo of several compounds were carried out several times, e.g., for the preparation labeled code number C-829, that is for 1-nitro-9-(2-dimethylamino-1-methylethylamino)-acridine dihydrochloride. […] In doses of 0.05 to 0.2 mg/kg the percent of inhibition was 17 to 73%, correspondingly.

[5] = test system: muscular coat of the small intestine; test: In vitro action on muscular coat of small intestine, guinea-pig; settings: 10^-5 to 5×10^-5, guinea-pig
circulatory system [6] = test: Circulatory and electrocardiographic effects; format: in vivo
central nervous system = format: in vivo
Excerpt: The preparation C-829 exerted an effect on the principal functions of the central nervous system.

kidneys = test system: kidneys; parameters: species or system rabbits and rats; settings: in vivo
Method: as §1

[7] = test system: muscular coat of the small intestine; test: In vitro action on muscular coat of small intestine, rat; settings: 10^-5 to 5×10^-5, rat
lymphatic system = test: Extended toxicity: lymphatic system; format: in vivo, rabbits and rats; settings: three-month study
Method: as §1

rabbits = test: Extended three-month toxicity study in rabbits; format: in vivo; settings: doses 1/100 to 1/40 LD50
Method: as §1

[8] = Acute toxicity by oral administration (LD50, MTD); format: in vivo; settings: in vivo, mice and rats
Method: (§2) On the other hand, similar doses as related to oral administration are about 100 mg/kg.
(§3) The MTD-values by oral administration are even lower i.e., by 53-66% than the sharp lethal dose.

mice and rats = test: Acute toxicity by oral administration (LD50, MTD); format: in vivo
Method: as §2, §3

[9] = Acute toxicity, signs and comparison with other acridine derivatives; format: in vivo
Method: as §2, §3

[10] = Acute toxicity i.v. in mice (LD50, MTD); format: in vivo; settings: mouse, in vivo, iv, on average
mice = test: Acute toxicity i.v. in mice (LD50, MTD); format: in vivo
peripheral blood = test: Extended toxicity: peripheral blood and clotting; format: in vivo, rabbits and rats
Method: as §1

circulatory system [11] = test: Circulatory action in atropinized animals; format: in vivo; settings: atropinized rabbits
[12] = test system: smooth muscle in the small intestine and the urinary bladder; test: Action on smooth muscle of small intestine and urinary bladder; format: in vivo; settings: 10 mg/kg, rabbit

CC(CN(C)C)Nc1c2ccccc2nc2cccc([N+](=O)[O-])c12.Cl.Cl (stereo not drawn) [Example C-829, 1-nitro-9-(2-dimethylamino-1-methylethylamino)-acridine dihydrochloride]
respiratory effect, initial phase (respiratory system; at the appearance of hypotension): instinctive respiratory excitation
respiratory effect, massive doses (respiratory system; massive doses): depressive centrally for respiratory action, leading terminally to an apnoea
effect on testicles (reproductory functions; 1/50 LD50, 14 days): some retrograde microscopical metaplasia within the germinal epithelium of spermatic tubules of the testicles, leading to a disorder in the spermatogenesis
effect on females fructified and newborn animals per brood (reproductory functions; 1/50 LD50, 14 days prior to connexion): reduced the amount of fructified females, as well as diminished the number of newborn animals in broods
effect on ovary (reproductory functions; 14 days): no observed pathological alteration in the ovary
development of the foetus and newborn animals (reproductory functions; 14 days prior to connexion): no macroscopic disorders of development of the foetus and newborn animals
liver function (transaminase AlAt, AspAt, acidic and alkaline phosphatase in serum) (liver): It could not be determined, that it could influence the functions of the liver
liver histology (liver): some weak (hardly perceptible) traits of the parenchymatous degeneration of glandular cells
thymol turbidity test (liver): positive
maximum tolerance dose during 12 weeks (highest dose) (rats [1]): 1/50
LD50 [2]: 13 mg/kg
maximum tolerance dose (MTD), lower than LD50 by (rats [3]): about 30%
local action of aqueous solution ([4]; 0.05-1% aqueous solution): locally irritating action
local action at higher concentrations ([4]; higher concentrations, aqueous solution): narcotizing effect
local irritation with phosphate buffer as solvent ([4]; phosphate buffer solution of Sorensen at pH 7): partially alleviated
dose dependence of inhibition of Sa-180 growth (Crocker Sarcoma (Sa-180)): dependent upon the dose
action on muscular coat of the small intestine [5]: rather a contracting (enterospasmatic) one
ECG intervals: PQ and QRS sections (circulatory system [6]; higher doses, intravenously): prolonging the PQ section and in widening the QRS section
blood pressure and conductivity disturbances (circulatory system [6]; higher doses, intravenously): intensified hypotension, induced some disturbances characteristic enough of the acridine compounds both in the atrio-ventricular and intraventricular conductivity
electrocardiographic changes (circulatory system [6]; initially, intravenously, doses increasing to 5 mg/kg): initially was not accompanied by any electrocardiographic changes
effect on blood pressure (circulatory system [6]; intravenously, doses increasing to 5 mg/kg, rabbits, cats): transient hypotension effect
conductivity disturbance at lethal doses (circulatory system [6]; lethal doses): total auriculoventricular dissociation
character of circulatory effect (circulatory system [6]; lower and moderate doses): transient character
action on muscular coat of blood-vessels (circulatory system [6]; rabbit, in vivo): tonic action on the muscular coat of the blood-vessels
interaction with soporific (hypnotic) drugs (central nervous system; 10 LD50 (so in the source)): clear depressive component value
action in the presence of cardiazol and strychnine (central nervous system; in vivo): complex and non-characteristic
influence on spontaneous motility (central nervous system; in vivo): devoid, indeed, of an influence on the spontaneous motility of animals
endogenous creatinine level in the serum (kidneys): remained unchanged
glomerular filterability (kidneys): maintained within standard limits
kidney histology (kidneys): some focal parenchymatous degeneration character in renal tubules
urine: pathological components and specific weight (kidneys): neither induced any appearance of pathological components in urine, nor changed its specific weight
action on muscular coat of the small intestine [7]: rather a contracting (enterospasmatic) one
lymphatic system: proliferous centers and small lymphocytes (lymphatic system): The structure of the proliferous centers became imperceptible, and also the amount of small lymphocytes diminished
lymphatic system: rete elements (lymphatic system): hypertrophy of rete elements
alterations in the lymphatic system (lymphatic system; especially mesenteric lymph nodes): very discretely marked involutional alterations
maximum tolerance dose during 12 weeks (highest dose) (rabbits): 1/40
LD50 [8]: ~100 mg/kg
MTD by oral administration, lower than the sharp lethal dose by (mice and rats): 53-66%
period over which animals die ([9]; in vivo): up to 10 days
relative toxicity among the derivatives of acridine ([9]; in vivo): relatively lower toxicity
toxic signs at death ([9]; regardless of the way of administration, dihydrochloride): intensified symptoms of the alimentary canal; also recorded: A sharp intestinal obstruction of the paralytic type occurs
LD50 [10]: 21 mg/kg
maximum tolerance dose (MTD), lower than LD50 by (mice): ~20%
influence on the thrombocyte system (peripheral blood; preliminary investigations): did not show the influence of the preparation on the thrombocyte system
picture of the peripheral blood (leukocytic, erythrocytic, hemoglobin levels) (peripheral blood; three-month study): did not change the picture of the peripheral blood
blood clotting (coagulation) time (peripheral blood; three-month study, not correlated with dosage): prolonged the blood clotting (coagulation) time
change of circulatory action by atropinization (circulatory system [11]): does not change the action of the preparation on the circulatory system
action on smooth muscle [12]: spasmolytic
